In general, EC50 refers to the concentration needed to bring the measured effect to its halfway point.

This is an account of results in patent US20160222014A1, “COMPOUNDS FOR REGULATING FAK AND/OR SRC PATHWAYS” (ASANA BIOSCIENCES, LLC, priority 2013, published 2016).

The target of the test is T1, FAK phosphorylated at Y397 in HEK-FAK cell line overexpressing human FL FAK protein (Homo sapiens, UniProt Q05397).
T1 construct: expressed in transfected cells
T1 sequence (Q05397 whole entry): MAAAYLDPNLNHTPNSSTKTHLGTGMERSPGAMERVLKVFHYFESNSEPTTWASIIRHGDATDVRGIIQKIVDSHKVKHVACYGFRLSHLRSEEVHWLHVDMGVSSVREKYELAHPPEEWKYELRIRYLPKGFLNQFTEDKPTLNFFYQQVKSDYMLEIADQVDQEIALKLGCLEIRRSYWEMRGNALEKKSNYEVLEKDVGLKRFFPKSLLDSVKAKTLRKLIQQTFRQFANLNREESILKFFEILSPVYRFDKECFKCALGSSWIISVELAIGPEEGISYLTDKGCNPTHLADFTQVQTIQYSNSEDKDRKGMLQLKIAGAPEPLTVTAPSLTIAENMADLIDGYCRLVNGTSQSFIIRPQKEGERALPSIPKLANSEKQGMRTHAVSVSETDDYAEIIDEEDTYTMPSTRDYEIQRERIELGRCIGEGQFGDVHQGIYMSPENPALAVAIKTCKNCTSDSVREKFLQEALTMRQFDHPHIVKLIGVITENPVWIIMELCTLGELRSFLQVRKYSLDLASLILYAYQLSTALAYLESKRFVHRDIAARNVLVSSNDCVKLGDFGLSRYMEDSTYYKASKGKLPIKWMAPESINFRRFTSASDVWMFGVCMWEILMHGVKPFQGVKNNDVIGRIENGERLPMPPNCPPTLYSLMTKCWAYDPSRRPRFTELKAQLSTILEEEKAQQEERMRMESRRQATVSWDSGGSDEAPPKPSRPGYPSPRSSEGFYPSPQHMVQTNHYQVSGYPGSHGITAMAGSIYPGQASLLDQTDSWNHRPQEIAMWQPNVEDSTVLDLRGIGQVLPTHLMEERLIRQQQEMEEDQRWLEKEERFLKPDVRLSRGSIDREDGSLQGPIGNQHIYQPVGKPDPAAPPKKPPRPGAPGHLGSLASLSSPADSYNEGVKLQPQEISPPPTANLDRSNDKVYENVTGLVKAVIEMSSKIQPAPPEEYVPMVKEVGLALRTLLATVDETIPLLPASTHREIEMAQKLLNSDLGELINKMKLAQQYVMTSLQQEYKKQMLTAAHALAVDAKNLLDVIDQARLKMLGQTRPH
The experiment in a line: Cell based assay, Phospho-FAK ELISA. The conditions noted are these: HEK stb; read-out: pFAK EC50 (μM) HEK stb. The gist of the method:
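Stable HEK293 line overexpressing full-length human FAK, kept under 0.8 mg/mL Zeocin. In lysates, FAK Y397 autophosphorylation was measured by sandwich ELISA: total-FAK capture antibody, biotinylated pY397-specific detection antibody, streptavidin-HRP with TMB substrate.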
(ELISA stands for enzyme-linked immunosorbent assay.)
Take `O=C1CCc2cc(Nc3ncc4cnn(Cc5ccccc5OC(F)F)c4n3)ccc2N1` [Example 21]: the EC50 is more than 1 µM.

For `FC(F)Oc1ccccc1Cn1ccc2cnc(Nc3ccc4ncsc4c3)nc21` [Example 36], the EC50 is more than 1 µM. Regarding `CC(=O)Nc1cccc(Nc2cc3c(cn2)cnn3Cc2ccccc2OC(F)F)c1` [Example 64], the EC50 is more than 1 µM. Take `FC(F)Oc1ccccc1Cn1ncc2cnc(Nc3ccc4ncsc4c3)cc21` [Example 82]: the EC50 was more than 1 µM. Turning to `CN(c1ncccc1Cn1ncc2cnc(Nc3ccc4[nH]c(=O)[nH]c4c3)cc21)S(C)(=O)=O` [Example 142], the 50% effective concentration (EC50) was more than 1 µM.

For the compound `CN(c1ncccc1Cn1ccc2cnc(Nc3ccc(NCCO)cc3)nc21)S(C)(=O)=O` [Example 201], the concentration giving a half-maximal response (EC50) is more than 1 µM. Turning to `CN(c1ncccc1Cn1ncc2cnc(Nc3ccc4c(c3)CCC(=O)N4)nc21)S(C)(=O)=O` [Example 202], the EC50 is more than 1 µM. As for `O=C1CCc2cc(Nc3ncc4ccn(Cc5cccnc5N5CCCS5(=O)=O)c4n3)ccc2N1` [Example 216], the EC50 is more than 1 µM.

Turning to `O=S(=O)(c1cccc2nsnc12)n1ccc2cnc(Nc3ccc(N4CCNCC4)cc3)nc21` [Example 253], the concentration for a half-maximal effect (EC50) is more than 1 µM. In the case of `Cn1cc(Nc2ncc3ccn(S(=O)(=O)c4cccc5cccnc45)c3n2)cn1` [Example 318], the EC50 is more than 1 µM.

In the case of `COc1cc(N2CCNCC2)ccc1Nc1cc2c(ccn2S(=O)(=O)c2cccc3cccnc23)cn1` [Example 330, N-(2-Methoxy-4-(piperazin-1-yl)phenyl)-1-(quinolin-8-ylsulfonyl)-1H-pyrrolo[3,2-c]pyridin-6-amine], the EC50 is less than 0.02 µM. The figure for `Cc1cc(Nc2ncc3cnn(S(=O)(=O)c4cccc5cccnc45)c3n2)ccc1N1CCNCC1` [Example 332] is less than 0.02 µM; for `COc1ccccc1S(=O)(=O)n1ncc2cnc(Nc3ccc(N4CCNCC4)cc3)nc21` [Example 335] it is more than 1 µM; for `CN(c1ncccc1Cn1ccc2cnc(Nc3ccc(N4CCCC4CO)cc3)nc21)S(C)(=O)=O` (centres unmarked) [Example 536] it is more than 1 µM.
